Laboratory results from patent US20230295163A1, “TETRACYCLIC DERIVATIVE, METHOD FOR PREPARING SAME AND USE THEREOF IN MEDICINE” (ZHEJIANG HISUN PHARMACEUTICAL CO., LTD., priority 2020, published 2023).
Where two headings read alike, the source gives them in different places.

Columns and labels:
NCI-H358 cells = assay: Inhibition of NCI-H358 cell proliferation (CellTiter-Glo); assay type: cell-based, human; conditions: 120 h of culture, read-out: IC50 inhibiting NCI-H358 cell proliferation
Procedure: The following method was used to determine the effect of the compounds of the present disclosure on the proliferation of NCI-H358 cells. NCI-H358 cells (containing KRAS G12C mutation) were purchased from the Cell Resource Center, Shanghai Institutes for Biology Sciences, Chinese Academy of Sciences, and cultured in RPMI 1640 medium containing 10% fetal bovine serum, 100 U penicillin, 100 μg/mL streptomycin and 1 mM sodium pyruvate. Cell viability was determined by CellTiter-Glo® Luminescent Cell Viability Assay Kit (Promega, Cat. No. G7573).
The experiment was conducted according to the steps in the kit instruction, which is briefly described as follows: The test compound was first prepared with DMSO into a 10 mM stock solution, which was then diluted with medium into a test sample with a final concentration of the compound ranging from 1000 nM to 0.015 nM Cells in the logarithmic growth phase were inoculated into a 96-well cell culture plate at a density of 800 cells per well, cultured overnight at 37° C. in a 5% CO2 incubator, and then added with the test compound for 120 h of culture. After the culture was completed, 50 μL of CellTiter-Glo detection solution was added to each well, shaken for 5 min and left to stand for 10 min. Subsequently, the luminescence value of the sample in each well was read by a microplate in a luminescence mode. The percentage of inhibition rate of the compounds at each concentration was calculated by comparing with the value of the control group (0.3% DMSO). Then a nonlinear regression analysis on the log concentration-inhibition rate of the compounds was performed by the software GraphPad Prism 5 to obtain the IC50 value of the compound inhibiting NCI-H358 cell proliferation. Table 2 IC50 data of compounds of the present disclosure inhibiting NCI-H358 cell proliferation Compound number IC50(nM)

[1] = target: T1, recombinant human KRAS G12C protein (Homo sapiens, UniProt P01116, G12C); assay: Covalent binding ability to KRAS G12C protein (LC-MS); conditions: 3 μM, 5 min
T1 construct: The recombinant human KRAS G12C protein (aa1-169)
Procedure: The following method was used to determine the covalent binding ability of the compounds of the present disclosure to recombinant human KRAS G12C protein under in vitro conditions.
The experimental procedure is briefly described as follows: The recombinant human KRAS G12C protein (aa1-169) was prepared with a reaction buffer (20 mM HEPES, 150 mM NaCl, 1 mM MgCl2, 1 mM DTT) at a concentration of 4 μM for later use. The test compound was prepared with DMSO into a 10 mM stock solution, which was then diluted with the reaction buffer for later use. First, 1.5 μL of the test compound diluted with the reaction buffer was added to each well (a final concentration of the reaction system was […]), then added with 23.5 μL of the reaction buffer, mixed well, then added with 25 μL of 4 μM recombinant human KRAS G12C protein for 5 min of incubation at room temperature, and added with 5 μL of acetic acid to stop the reaction. The samples were transferred to injection vials. The ratios of covalent binding between the test compounds and KRAS G12C protein were detected by Agilent 1290/6530 instrument, and the samples were analyzed in a liquid chromatography column (XBridge Protein BEH C4, 300 Å, 3.5 μm, 2.1 mm×50 mm). In the detection process, mobile phase A was 0.1% formic acid aqueous solution, mobile phase B was acetonitrile, the mobile phase elution program was as follows: mobile phase A was kept at 95% at 0-0.5 min, changed to 30% at 2.5 min for 0.5 min, and changed to 95% at 3.1 min for 1.9 min; and flow rate was 0.5 mL/min. Finally, the data was analyzed by MassHunter Workstation Software Bioconfirm Version B.08.00 to obtain the covalent binding rate between the test compound at a concentration of 3 μM and KRAS G12C protein under 5 min of incubation.

[2] = test system: p-ERK1/2 in NCI-H358 cells; assay: Inhibition of p-ERK1/2 in NCI-H358 cells (HTRF kit); assay type: cell-based; conditions: Homo sapiens, hEGF 5 nM stimulation, read-out: IC50 inhibiting p-ERK1/2 in NCI-H358 cells
Excerpt: The following method was used to determine the inhibitory activity of the compounds of the present disclosure on p-ERK1/2 in NCI-H358 cells. In this method, Advanced phospho-ERK1/2 (Thr202/tyr204) kit (Cat. No. 64AERPEH) from Cisbio company was used, and the detailed experimental operation can be referred to the kit instruction. NCI-H358 cells (containing KRAS G12C mutation) were purchased from the Cell Resource Center, Shanghai Institutes for Biology Sciences, Chinese Academy of Sciences.
The experimental procedure is briefly described as follows: NCI-H358 cells were cultured in RPMIH 1640 complete medium containing 10% fetal bovine serum, 100 U penicillin, 100 μg/mL streptomycin and 1 mM sodium pyruvate. […] The 96-well plate was placed on ice for half an hour of lysis, and then the lysate was detected according to the instruction of the Advanced phospho-ERK1/2 (Thr202/tyr204) kit. Finally, the fluorescence intensity of each well at emission wavelengths of 620 nm and 665 nM was measured on a microplate reader in TF-FRET mode at an excitation wavelength of 304 nm, and the ratio of the fluorescence intensity of each well at 665/620 was calculated. The percentage of inhibition rate of the test compounds at each concentration was calculated by comparing with the fluorescence intensity of the control group (0.1% DMSO). […]

[3] = ICR mouse pharmacokinetic research; assay type: in vivo; conditions: plasma, po, ICR mice, intragastric administration 5 mg/kg
Procedure: ICR mice were used as test animals. The drug concentrations in plasma at different time points of the compounds in Comparative Example 1 and Example 17 of the present disclosure intragastrically administered to the mice were determined by LC/MS/MS method, to study the pharmacokinetic characteristics of the compounds of the present disclosure in mice.
Preparation for intragastric administration: An appropriate amount of the compound to be tested was weighed, added with an appropriate amount of DMSO: PEG 200=5%: 95% (v/v), shaken by vortex, and prepared into a solution with a final concentration of 0.5 mg/mL.
Intragastric administration group: After fasting overnight, the mice were intragastrically administered at a dose of 5 mg/kg and a volume of 10 mL/kg, and fed 4 h after the administration.
Intragastric administration group: About 100 μL of blood was collected through the orbital vein before administration and at 0.25 h, 0.5 h, 1 h, 2 h, 4 h, 8 h, 12 h and 24 h after administration.
The whole blood sample was put in an EDTA-K2 anticoagulant tube. The plasma was separated by centrifugation at 1500 g for 10 min. The collected upper layer plasma was stored at −40 to −20° C. before analysis.
The content of the compound to be tested in mouse plasma was determined by LC-MS/MS after the compound was intragastrically administered.

T1 sequence (P01116 1-169 isoform P01116-2 G12C): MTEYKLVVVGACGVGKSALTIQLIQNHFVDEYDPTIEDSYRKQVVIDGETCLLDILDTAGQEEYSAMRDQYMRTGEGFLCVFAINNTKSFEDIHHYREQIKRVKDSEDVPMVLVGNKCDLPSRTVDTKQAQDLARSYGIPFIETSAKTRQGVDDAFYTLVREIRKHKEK

Row | IC50 (NCI-H358 cells; Homo sapiens, NCI-H358, 120 h) [nM] | Covalent binding rate (%) [1] [%] | IC50 (NCI-H358 cells) [nM] | SMILES | also measured
1 | 73.4 | 45.5 | – | C=CC(=O)N1C[C@@H]2C(=O)N(C)c3c(c4cc(F)c(-c5nc(N)ccc5Cl)nc4n(-c4c(C)ccnc4C(C)C)c3=O)N2C[C@H]1C [Compound 10, (2R,4aR)-3-acryloyl-10-(6-amino-3-chloropyridin-2-yl)-11-fluoro-8-(2-isopropyl-4-methylpyridin-3-yl)-2,6-dimethyl-2,3,4,4a,6,8-hexahydro-1H-pyrazino [1′,2′:4,5]pyrazino[2,3-c][1,8] naphthyridine-5,7-dione] | –
2 | – | 38.5 | 39.9 | C=CC(=O)N1C[C@@H]2C(=O)N(C)c3c(c4cc(Cl)c(-c5c(O)cccc5F)nc4n(-c4c(SC)ccnc4C(C)C)c3=O)N2C[C@H]1C [Compound 16, (2R,4aR)-3-acryloyl-11-chloro-10-(2-fluoro-6-hydroxyphenyl)-8-(2-isopropyl-4-(methylthio)pyridin-3-yl)-2,6-dimethyl-2,3,4,4a,6,8-hexahydro-1H-pyrazino [1′,2′:4,5]pyrazino[2,3-c][1,8] naphthyridine-5,7-dione] | IC50 [2]: 93 nM
3 | – | – | 98.5 | C=CC(=O)N1C[C@@H]2C(=O)N(C)c3c(c4cc(Cl)c(-c5c(O)cccc5F)nc4n(-c4c(SC)ccnc4C(C)C)c3=O)N2C[C@H]1C [Compound 18] | –

More lines, now with the values behind:

Row | SMILES | IC50 (NCI-H358 cells; Homo sapiens, NCI-H358, 120 h) [nM] | Covalent binding rate (%) [1] [%] | IC50 (NCI-H358 cells) [nM] | also measured
4 | C=CC(=O)N1C[C@@H]2C(=O)N(C)c3c(c4cc(Cl)c(-c5c(O)cccc5F)nc4n(-c4c(C)ccnc4C(C)C)c3=O)N2C[C@H]1C (atropisomer, axis not shown) [Comparative Example 1, reference compound] | – | – | – | AUC(0-inf) ([3]; read-out: Area under curve AUC0-∞): 4180 ng·h/mL; Cmax ([3]; read-out: Blood concentration Cmax): 928 ng/mL; half-life ([3]; read-out: Half-life T½ (converted)): 1.95 h
5 | C=CC(=O)N1C[C@@H]2C(=O)N(C)c3c(c4cc(F)c(-c5ccc(F)c6sc(N)nc56)nc4n(-c4c(C)ccnc4C(C)C)c3=O)N2C[C@H]1C [Compound 7, (2R,4aR)-3-acryloyl-10-(2-amino-7-fluorobenzo[d]thiazol-4-yl)-11-fluoro-8-(2-isopropyl-4-methylpyridin-3-yl)-2,6-dimethyl-2,3,4,4a,6,8-hexahydro-1H-pyrazino [1′,2′:4,5]pyrazino[2,3-c][1,8]naphthyridine-5,7-dione] | 67.2 | 42.5 | – | –
